Patent publication US20250059205A1, “Heterocyclic Compounds and Methods of Use” (AMGEN INC., priority 2021, published 2025)

Key:
[1] = target: His-tagged KRAS G12D protein (Homo sapiens, UniProt P01116, G12D); test: KRAS G12D TR-FRET Assay; assay type: binding
[2] = target: GDP-bound KRAS protein (aa 1-169), containing both G12D and C118A amino acid substitutions (Homo sapiens, UniProt P01116, C118A/G12D); test: KRAS G12D Coupled Nucleotide Exchange Assay; assay type: biochemical; conditions: 2 h compound pre-incubation
Chain of GDP-bound KRAS protein (aa 1-169), containing both G12D and C118A amino acid substitutions (P01116 1-169 isoform P01116-2 G12D/C118A): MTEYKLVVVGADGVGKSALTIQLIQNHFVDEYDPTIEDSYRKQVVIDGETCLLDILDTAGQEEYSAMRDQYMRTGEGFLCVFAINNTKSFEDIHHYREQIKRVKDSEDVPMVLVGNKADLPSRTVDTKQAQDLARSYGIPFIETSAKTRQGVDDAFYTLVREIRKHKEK
Method: Following compound pre-incubation, purified SOS protein (aa 564-1049) and GTP (Roche 10106399001) were added to the assay wells and incubated for an additional 30 min. […] The assay plates were then read on a PerkinElmer EnVision Multilabel Reader, using AlphaScreen® technology, and data were analyzed using a 4-parameter logistic model to calculate IC50 values.

[3] = system: Phosphorylation of ERK1/2 in A-427 cells; test: Phospho-ERK1/2 MSD Assay (A-427 cells); assay type: cell-based; conditions: Homo sapiens, A-427, 2 h, 2 h treatment, read-out: p-ERK (A427 cells) IC50
Outline: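 ERK1/2 phosphorylation measured by Meso Scale whole-cell lysate assay after A-427 cells were exposed to a titration of compound for 2 h at 37 °C.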

[4] = system: Phosphorylation of ERK1/2 in AsPC-1 cells; test: Phospho-ERK1/2 MSD Assay (AsPC-1 cells); assay type: cell-based; conditions: Homo sapiens, ASPC1, 2 h, 2 hours treatment, read-out: p-ERK (AsPC-1 cells) IC50
Outline: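 Read-out: MSD electrochemiluminescent detection of phosphorylated ERK1/2 in whole-cell lysates, fitted to a 4-parameter logistic curve for IC50. Prior to lysis, AsPC-1 cells (25,000 per well) received a 2 h compound dose-response at 37 °C.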

Chain of His-tagged KRAS G12D protein (P01116 1-188 isoform P01116-2 G12D): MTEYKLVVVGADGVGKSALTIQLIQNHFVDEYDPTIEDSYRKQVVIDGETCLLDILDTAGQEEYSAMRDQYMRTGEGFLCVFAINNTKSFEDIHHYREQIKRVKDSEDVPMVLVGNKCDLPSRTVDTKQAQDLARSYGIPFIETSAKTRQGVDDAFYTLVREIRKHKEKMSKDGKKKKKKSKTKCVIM

Structure (SMILES) | IC50 [1] | Avg 2 h Coupled Exchange IC50 [2] | IC50 [3] | IC50 [4]
Cc1c(Cl)cc2[nH]ncc2c1-c1ccc2c(N3[C@@H]4CC[C@H]3CNC4)nc(OC[C@@]34CCCN3C[C@H](F)C4)nc2c1 [Example 38, 4-((1R,5S)-3,8-diazabicyclo[3.2. 1]octan-8-yl)-7-(6-chloro-5-methyl-1H-indazol-4-yl)-2-(((2R,7aS)-2-fluorotetrahydro-1H-pyrrolizin-7a(5H)-yl)methoxy) quinazoline] | 195 nM | 42 nM | > 10000 nM | 6310 nM
Oc1cc(-c2cc3nc(OC[C@@]45CCCN4C[C@H](F)C5)nc(N4C[C@H]5CC[C@@H](C4)N5)c3cc2F)c2ccccc2c1 [Example 42, 4-(4-((1R,5S)-3,8-diazabicyclo[3.2. 1]octan-3-yl)-6-fluoro-2-(((2R,7aS)-2-fluorotetrahydro-1H-pyrrolizin-7a(5H)-yl)methoxy)quinazolin-7-yl)naphthalen-2-ol] | 3 nM | 3 nM | 77 nM | 223 nM
CCc1c(F)ccc2cc(O)cc(-c3c(F)cc4c(N5C[C@H]6CC[C@@H](C5)N6)nc(OCC5(C)CCC(=O)O5)nc4c3F)c12 (stereo partly drawn) [Example 212, 5-(((4-((1R,5S)-3,8-Diazabicyclo[3.2.1]octan-3-yl)-7-(8-ethyl-7-fluoro-3-hydroxynaphthalen-1-yl)-6,8-difluoroquinazolin-2-yl)oxy)methyl)-5-methyldihydrofuran-2(3H)-one] | 2 nM | 3 nM | 514 nM | 784 nM
Oc1cc(-c2c(F)cc3c(N4C[C@H]5COC[C@@H](C4)N5)nc(OC[C@@]45CCCN4C[C@H](F)C5)nc3c2F)c2ccccc2c1 [Example 15, 4-(4-((1R,5S)-3-oxa-7,9-diazabicyclo[3.3. 1]nonan-7-yl)-6,8-difluoro-2-(((2R,7aS)-2-fluorotetrahydro-1H-pyrrolizin-7a(5H)-yl)methoxy)quinazolin-7-yl)naphthalen-2-ol] | 20 nM | 14 nM | 1550 nM | 3220 nM
Oc1cc(-c2ccc3c(N4[C@@H]5CNC[C@H]4COC5)nc(OCC45CCCN4CC(F)(F)C5)nc3c2F)c2ccccc2c1 (stereo partly drawn) [Example 10, 4-(4-((1R,5S)-3-oxa-7,9-diazabicyclo[3.3. 1]nonan-9-yl)-2-((2,2-difluorotetrahydro-1H-pyrrolizin-7a(5H)-yl)methoxy)-8-fluoroquinazolin-7-yl)naphthalen-2-ol] | 106 nM | 132 nM | 5240 nM | 6270 nM
CCc1cccc2cc(O)cc(-c3c(F)cc4c(N5C[C@@H]6CC[C@H]5CN6)nc(OC[C@@]56CCCN5C[C@H](F)C6)nc4c3F)c12 [Example 109, 4-(4-((1S,4S)-2,5-Diazabicyclo[2.2.2]octan-2-yl)-6,8-difluoro-2-(((2R,7aS)-2-fluorotetrahydro-1H-pyrrolizin-7a(5H)-yl)methoxy)quinazolin-7-yl)-5-ethylnaphthalen-2-ol] | 4 nM | 3 nM | 17 nM | 29 nM
N#Cc1cc2c(N3C[C@H]4CC[C@@H](C3)N4)nc(OC[C@@]34CCCN3C[C@H](F)C4)nc2c(F)c1-c1cc(O)cc2ccccc12 [Example 219, 4-((1R,5S)-3,8-Diazabicyclo[3.2.1]octan-3-yl)-8-fluoro-2-(((2R,7aS)-2-fluorotetrahydro-1H-pyrrolizin-7a(5H)-yl)methoxy)-7-(3-hydroxynaphthalen-1-yl)quinazoline-6-carbonitrile] | 1 nM | 2 nM | 92 nM | 531 nM
Oc1cc(-c2cc3nc(OC[C@@]45CCCN4C[C@H](F)C5)nc(N4[C@@H]5CC[C@H]4CNC5)c3cc2F)c2ccccc2c1 [Example 53, 4-(4-((1R,5S)-3,8-diazabicyclo[3.2. 1]octan-8-yl)-6-fluoro-2-(((2R,7aS)-2-fluorotetrahydro-1H-pyrrolizin-7a(5H)-yl)methoxy)quinazolin-7-yl)naphthalen-2-ol] | 16 nM | 3 nM | 608 nM | 919 nM
Nc1ccc(C2CC2)c(-c2c(F)cc3c(N4C[C@H]5CC[C@@H](C4)N5)nc(OC[C@@]45CCCN4C[C@H](F)C5)nc3c2F)c1 [Example 114, 3-(4-((1R,5S)-3,8-diazabicyclo[3.2.1]octan-3-yl)-6,8-difluoro-2-(((2R,7aS)-2-fluorotetrahydro-1H-pyrrolizin-7a(5H)-yl)methoxy)quinazolin-7-yl)-4-cyclopropylaniline] | 16 nM | 4 nM | 985 nM | 1420 nM
Oc1cc(-c2c(F)cc3c(N4[C@@H]5CNC[C@H]4COC5)nc(OC[C@@]45CCCN4C[C@H](F)C5)nc3c2F)c2ccccc2c1 [Example 14, 4-(4-((1R,5S)-3-oxa-7,9-diazabicyclo[3.3.1]nonan-9-yl)-6,8-difluoro-2-(((2R,7aS)-2-fluorotetrahydro-1H-pyrrolizin-7a(5H)-yl)methoxy)quinazolin-7-yl)naphthalen-2-ol] | 9 nM | 8 nM | 274 nM | 762 nM
CCc1c(F)ccc2cc(O)cc(-c3c(F)cc4c(N5[C@@H]6CCC[C@H]5CNC6)nc(OC[C@@]56CCCN5C[C@H](F)C6)nc4c3F)c12 [Example 172, 4-(4-((1R,5S)-3,9-diazabicyclo[3.3.1]nonan-9-yl)-6,8-difluoro-2-(((2R,7aS)-2-fluorotetrahydro-1H-pyrrolizin-7a(5H)-yl)methoxy)quinazolin-7-yl)-5-ethyl-6-fluoronaphthalen-2-ol] | 85 nM | 36 nM | 5430 nM | 2920 nM
CCc1c(F)ccc2cc(O)cc(-c3ccc4c(N5C[C@@H]6CC[C@H]5CN6)nc(OC[C@@]56CCCN5C[C@H](F)C6)nc4c3F)c12 [Example 139, 4-(4-((1S,4S)-2,5-diazabicyclo[2.2.2]octan-2-yl)-8-fluoro-2-(((2R,7aS)-2-fluorotetrahydro-1H-pyrrolizin-7a(5H)-yl)methoxy)quinazolin-7-yl)-5-ethyl-6-fluoronaphthalen-2-ol] | 5 nM | 4 nM | 8 nM | 44 nM
CCc1c(F)ccc2cc(O)cc(-c3ccc4c(N5C[C@@H]6CC[C@H]5CN6)nc(OC[C@@]56CCCN5C[C@H](F)C6)nc4c3C)c12 [Example 92, 4-(4-((1S,4S)-2,5-diazabicyclo[2.2. 2]octan-2-yl)-2-(((2R,7aS)-2-fluorotetrahydro-1H-pyrrolizin-7a(5H)-yl)methoxy)-8-methylquinazolin-7-yl)-5-ethyl-6-fluoronaphthalen-2-ol] | 24 nM | 33 nM | 880 nM | 829 nM
CCc1cccc2cc(O)cc(-c3ccc4c(N5C[C@H]6CC[C@@H](C5)N6)nc(OC[C@@]56CCCN5C[C@H](F)C6)nc4c3C)c12 [Example 168, 4-(4-((1R,5S)-3,8-diazabicyclo[3.2.1]octan-3-yl)-2-(((2R,7aS)-2-fluorotetrahydro-1H-pyrrolizin-7a(5H)-yl)methoxy)-8-methylquinazolin-7-yl)-5-ethylnaphthalen-2-ol] | 4 nM | 8 nM | 78 nM | 243 nM
Oc1cc(-c2cc3nc(OC[C@@]45CCCN4C[C@H](F)C5)nc(N4C[C@H]5CC[C@@H](C4)N5)c3cc2F)c2c(Cl)cccc2c1 [Example 85, 4-(4-((1R,5S)-3,8-diazabicyclo[3.2. 1]octan-3-yl)-6-fluoro-2-(((2R,7aS)-2-fluorotetrahydro-1H-pyrrolizin-7a(5H)-yl)methoxy)quinazolin-7-yl)-5-chloronaphthalen-2-ol] | 4 nM | 1 nM | 64 nM | 273 nM
Oc1cc(Cl)c(C2CC2)c(-c2c(F)cc3c(N4CC5CCC4CN5)nc(OC[C@@]45CCCN4C[C@H](F)C5)nc3c2F)c1 (stereo in doubt) [Example 143, 3-(4-((1R,4R)-2,5-diazabicyclo[2.2.2]octan-2-yl)-6,8-difluoro-2-(((2R,7aS)-2-fluorotetrahydro-1H-pyrrolizin-7a(5H)-yl)methoxy)quinazolin-7-yl)-5-chloro-4-cyclopropylphenol] | 3 nM | 3 nM | 13 nM | 46 nM
Oc1cc(-c2ccc3c(N4C[C@H]5CC[C@@H](C4)N5)nc(OC[C@]45CCCN4C[C@H](F)C5)nc3c2F)c2ccccc2c1 [Example 44, 4-(4-((1R,5S)-3,8-diazabicyclo[3.2. 1]octan-3-yl)-8-fluoro-2-(((2R,7aR)-2-fluorotetrahydro-1H-pyrrolizin-7a(5H)-yl)methoxy)quinazolin-7-yl)naphthalen-2-ol] | 2 nM | 2 nM | 19 nM | 114 nM
